Measured values from patent US11208642B2, “Microbial syringol utilization” (Alliance for Sustainable Energy, LLC, priority 2018, dated 2021).

Columns and labels:
Type in all cases: biochemical
GcoA-F169A = target: T1, GcoA-F169A (Amycolatopsis sp., UniProt P0DPQ7, F169A/H210Q); test: Rate of NADH disappearance (UV/vis) with each substrate; details: GcoA-F169A with the named substrate
T1 construct: GST (N, cleaved yes); made in house; host or cells: E. coli Rosetta 2 (DE3)
Experimental: To address whether guaiacol and/or syringol would serve as substrates of GcoA-F169A, the disappearance of NADH (UV/vis) and aromatic substrate (HPLC) was monitored over time (FIG. 1). The rates of organic substrate and NADH consumption were robust and the same within error, regardless of whether guaiacol or syringol was used (5.3±0.3 μM guaiacol s^−1 μmol GcoA-F169A^−1, 5.8±0.8 μM NADH s^−1 μmol GcoA-F169A-1; 4.1±0.3 μM syringol s^−1 μmol GcoA-F169A^−1, 5.1±0.8 μM NADH s^−1 μmol GcoA-F169A^−1).
Steady state kinetics of F169A. 0.2 μM each of F169A GcoA and GcoB were dissolved in air-saturated buffer (25 mM HEPES, 50 mM NaCl) in a cuvette at pH 7.5, 25° C. 100 μg/mL catalase was added to each reaction to capture any H2O2 formed during the uncoupled reaction. A saturating amount of NADH (≥5 KM, 300 μM) was added and a background rate of NADH oxidation in air (about 210 μM O2) recorded via continuous scanning of the UV/vis spectrum (Varian Cary 50). 20-300 μM guaiacol or syringol 2-20 mM stock dissolved in DMSO was added and the reaction was monitored via measurement of UV/vis spectra for several minutes. The initial velocity was determined by disappearance of the characteristic NADH absorbance at 340 nm ([…]=6.22 mM^−1 cm^−1). A plot of vi versus the concentration of guaiacol was fit to equation 4 to obtain kcat, KM, and kcat/KM. For specific activity determination, the above method was used but with saturating (300 μM) guaiacol, syringol, or 3-methoxycatechol (3MC), and in the presence of all F169 GcoA mutants (A, H, S, V, I, L). The linear portion of the concentration of NADH versus time was fit and referenced to the amount of GcoA used (0.2 μM). Reported values are the average of at least 3 measurements and reported errors are standard deviations. vi=Vmax[S]/(KM+[S]) Equation (4): […]

GcoA-F169A and GcoB [1] = target: T2, GcoA-F169A and GcoB (Amycolatopsis sp., UniProt P0DPQ7, F169A/H210Q); test: Uncoupling reactions: endpoint formaldehyde referenced to NADH consumed; details: for % Formaldehyde produced: referenced to NADH consumed; for Coupling efficiency: GcoA-F169A-catalyzed reaction
T2 construct: GST (N, cleaved yes); made in house; host or cells: E. coli Rosetta 2 (DE3)
Experimental: (§1) The ^a in Table 3 notes that 0.2 μM GcoA-F169A and GcoB were reacted with 100 μg catalase, 100 or 200 μM NADH, and 100 μM substrate in 25 mM HEPES, 50 mM NaCl, pH 7.5, 25° C., 210 μM O2. Endpoint analyses were done to quantify formaldehyde produced, which was then referenced to NADH consumed. The ^b in Table 3 notes that the same reaction done above was repeated to quantify H2O2 produced using the Amplex Red/HRP assay. The amount of hydrogen peroxide was then referenced to NADH consumed.
Formaldehyde determination. A colorimetric assay using tryptophan can be used to quantify the amount of formaldehyde produced in F169 GcoA/B reactions with guaiacol, syringol, or 3MC. 0.2 μM each of F169 GcoA mutants and GcoB were dissolved in air-saturated buffer (25 mM HEPES, 50 mM NaCl) in a cuvette at pH 7.5, 25° C. 100 μg/mL catalase was added to each reaction to capture any H2O2 formed during the uncoupled reaction. Two hundred μM NADH was added and the background rate recorded. One hundred (guaiacol, syringol, or 3MC) or 200 (syringol) μM of substrate was then added and the reaction monitored until there was no more change, due to either substrate, NADH or O2 depletion, whichever occurred first. 200 μL of the reaction was then quenched by adding 200 μL of a 0.1% tryptophan solution in 50% ethanol and 200 μL of 90% sulfuric acid. Upon thorough mixing, 40 μL of 1% FeCl3 was added. The solution was then incubated in a heating block for 90 min at 70° C. After cooling, the absorbance was read at 575 nm and the concentration of formaldehyde was calculated by using ε575 nm=4.2 mM^−1 cm^−1, obtained with formaldehyde as a standard. A negative control included everything but the substrate and was used as a baseline.

GcoA-F169A and GcoB [2] = target: T2, GcoA-F169A and GcoB; test: Uncoupling reactions: H2O2 by Amplex Red/HRP assay referenced to NADH consumed
Experimental: as §1
Detection of H2O2 via HRP and Amplex Red assay. A colorimetric assay involving horseradish peroxidase (HRP) and Amplex Red was used to quantify H2O2 in the reaction between GcoA-F169A GcoA/GcoB, NADH and guaiacol, syringol, or 3MC.
Detection of H2O2 via horseradish peroxidase (HRP) and Amplex Red assay. The reaction between 100 μM guaiacol or 3MC with 0.2 μM F169A/GcoB and 100 μM NADH in air-saturated buffer (25 mM HEPES, 50 mM NaCl, pH 7.5) was monitored continuously in a quartz cuvette, using the NADH consumption assay described above. The same thing was done for syringol, but with either 100 or 200 μM NADH. When there was no longer any change in the spectra, e.g., the reaction was completed, 100 μL was removed from the cuvette and pipetted into a 96-well microplate. A 5 mL solution containing 50 μL of 10 mM Amplex Red (prepared in DMSO and stored at −20° C.) and 100 μL of 10 U/mL HRP was made up in the above buffer. One hundred μL of this was added to each of the wells with each reaction sample. The plate was incubated in the dark at room temperature for 30 min, at which point the absorbance at 572 nm was recorded by a Varioskan Lux microplate reader (Thermo Scientific). The absorbance was compared to a standard curve with 0-100 μM H2O2 to quantify the amount of peroxide produced in the reactions.

T2 sequence (P0DPQ7 whole entry F169A/H210Q): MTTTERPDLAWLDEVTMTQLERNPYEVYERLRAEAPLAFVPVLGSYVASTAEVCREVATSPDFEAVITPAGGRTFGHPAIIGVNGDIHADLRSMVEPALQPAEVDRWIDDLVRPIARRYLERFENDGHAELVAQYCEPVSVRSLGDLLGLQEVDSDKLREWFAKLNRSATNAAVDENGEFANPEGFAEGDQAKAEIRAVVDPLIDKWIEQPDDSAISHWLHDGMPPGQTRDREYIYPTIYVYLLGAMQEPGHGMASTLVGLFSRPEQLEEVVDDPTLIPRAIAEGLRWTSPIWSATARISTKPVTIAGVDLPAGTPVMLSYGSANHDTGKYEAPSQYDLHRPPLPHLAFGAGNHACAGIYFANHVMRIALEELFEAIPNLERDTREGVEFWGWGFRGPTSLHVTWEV
T1 sequence (P0DPQ7 whole entry F169A/H210Q): as above

Compound | Rate of NADH consumption (UV/vis) (GcoA-F169A) | % Formaldehyde produced (GcoA-F169A and GcoB [1]; 100 μM substrate + 100 μM NADH) [%] | Coupling efficiency (GcoA-F169A and GcoB [1]) [%] | % H2O2 produced (GcoA-F169A and GcoB [2]; 100 μM substrate + 100 μM NADH) [%] | % Formaldehyde produced (GcoA-F169A and GcoB [1]; 100 μM substrate + 200 μM NADH) [%] | % H2O2 produced (GcoA-F169A and GcoB [2]; 100 μM substrate + 200 μM NADH) [%]
COc1cccc(O)c1O [3MC, 3-methoxycatechol] | 5.6±0.8 μM NADH s^−1 μmol GcoA-F169A^−1 | 52 ± 7 | 64±10 | 17 ± 0.2 | – | –
COc1cccc(OC)c1O [syringol, 2,6-dimethoxyphenol] | 5.1±0.8 μM NADH s^−1 μmol GcoA-F169A^−1 | 125 ± 6 | – | 7.4 ± 0.03 | 91 ± 8 | 7.9 ± 0.5
COc1ccccc1O [guaiacol, 2-methoxyphenol] | 5.8±0.8 μM NADH s^−1 μmol GcoA-F169A^−1 | 100 ± 10 | 91±8 | 3.7 ± 0.6 | – | –
